This note sets out measurements from US10912752B2, “Methods and compositions for reducing ocular discomfort” (Brien Holden Vision Institute Limited, priority 2012, dated 2021).

Holding throughout (assay type): cell-based, human
In one series the test system is caspase-8. Kind of series: Caspase-Glo luminescent caspase activity in HCLE under hyperosmotic stress. The following applies: 16 h; for reduction of caspase-8 activity: 500 mOsm. The protocol: (§1) Caspase-3/7, -8 and -9 activities were assayed using a luminescent assay kit (Promega, Madison, Wis.) according to the manufacturer's instructions. Briefly, 100 μL of Caspase-Glo-3/7, -8 and -9 reagents were added to HCLE at maintained on plastic at 2×10^4/cm^2, mixed and incubated for one hour at room temperature. Luminescence was measured using a SpectraFluor Plus microplate reader.
(§2) Cultured human corneal limbal epithelial (HCLE) cells were exposed to culture medium with or without carnitine (10 mM) at 300 mOsm (isotonic), 450 mOsm (moderate), and 500 mOsm (hyperosmotic) for 16 h. Induction of apoptosis was detected by quantification of the proteolytic activity of caspase-8, caspase-9, or caspase-3/7 using caspase activity assays, and production of tumor necrosis factor (TNF)-α, a known apoptosis inducer, using ELISA. Annexin V and Propidium iodine (PI) staining was performed to detect the percentage of apoptotic cells using confocal microscopy and flow cytometry.

The test system of series [1] is HCLE cells. Kind of series: Flow cytometry cell volume (shrunken cells) under hyperosmotic stress. Conditions: 16 h; for population of shrunken cells: 500 mOsm + 10 mM, flow cytometry. The source says:
Forward scatter of the laser light produced by the flow cytometer is proportional to the volume of the cell. This principle was used to analyse the osmoprotective effect of betaine in restoring the cell volume which is adversely affected due to hypertonicity. Cell populations were gated such that the population of cells showing a greater forward scatter (FSC) constituted the percentage of cells with a volume equal to that of a cell under isotonic conditions. On the other hand, the proportion of side scatter in a flow cytometer represents the cell structure complexity and granularity. […] Cells were exposed to isotonic media (300 mOsM), hyperosmotic media (500 mOsM) and hyperosmotic media containing betaine (500 mOsM media+10 mM betaine) for 16 h after which they were analysed using flow cytometer.
(§3) Cell volume and Live/Dead staining via flow cytometry were performed using the Attune® Acoustic focusing Cytometer (Life Technologies™ Applied Biosystems). Annexin V and PI kit (Invitrogen™) was used to analyse the non-apoptotic, and the early and late apoptotic cells. Staining was performed as per manufacturer's instructions. Analysis of Annexin staining was conducted using the blue/violet laser with excitation/emission spectra of 480/500 nm (20 mW) and the PI staining analysis was conducted using blue/red laser with an excitation/emission spectra of 490/635 nm.
Cultured HCLE cells were exposed to culture medium with or without carnitine (10 mM) at 300 mOsm (isotonic) and 500 mOsm (hyperosmotic) for 16 h. Flow cytometry was performed to determine the cell volume changes based on the forward and side scatter values detected.

Series [2] concerns HCLE cells. The experiment in a line: MTT cell viability, titration of osmolyte concentration in isotonic medium. The protocol: An immortalized human corneal limbal epithelial (HCLE) cell line (a kind gift from Ilene Gipson, Schepens Eye Research Institute, Boston, Mass.) was used in the study. HCLE cells were cultured as previously described (Garrett et al. Invest Ophthalmol Vis Sci 2008; 49:4844-4849). Briefly, the cells were maintained on plastic at 2×10^4/cm^2 in a keratinocyte serum-free medium (K-SFM; Invitrogen-Gibco, Grand Island, N.Y.), supplemented with 25 μg/mL bovine pituitary extract, 0.2 ng/mL epidermal growth factor (EGF; Invitrogen, Mount Waverley, VIC, Australia), and 0.4 mM CaCl2 and were grown at 37° C. in a 5% carbon dioxide atmosphere. To enhance nutrient composition, the cultures were switched at approximately 50% confluence to a 1:1 mixture of K-SFM and low calcium DMEM/F12 (Invitrogen), to achieve confluence. All the experiments involving the culture of HCLE cells were performed at 37° C. in a 5% carbon dioxide atmosphere unless otherwise indicated.
To determine the optimal concentration of betaine for use in the osmoprotective studies, betaine (Sigma-Aldrich, St. Louis, Mo.; 1.0-200 mM) was prepared in culture medium. […] Following treatment with betaine, cell viability was assessed using the 3-[4,5-dimethylthiazol-2-yl]-2,5-diphenyltetr azoliumbromide (MTT) cell survival assays (Promega, Madison, Wis.).

For a further series, the system named is caspase-9. Kind of series: Caspase-Glo luminescent caspase activity in HCLE under hyperosmotic stress. The following applies: 16 h. The protocol:
as §1
(§4) […] Induction of apoptosis was detected by quantification of the proteolytic activity of caspase-8, caspase-9, or caspase-3/7 using caspase activity assays, and production of tumor necrosis factor (TNF)-α, a known apoptosis inducer, using ELISA. Annexin V and Propidium iodine (PI) staining was performed to detect the percentage of apoptotic cells using confocal microscopy and flow cytometry.

In a further series the test system is caspase-3/7. Described as above. The following applies: 16 h. The procedure: as §1, §4
Series [3] has as its system HCLE cells. Kind of series: Flow cytometry Annexin V/PI apoptosis/necrosis under hyperosmotic stress. Conditions: 16 h; for percentage of healthy cells (Annexin V and PI negative): 500 mOsm + 10 mM vs 500 mOsm; for total percentage of apoptotic and necrotic (damaged) cells: 500 mOsm + 10 mM, flow cytometry. The procedure: as §3
500 mOsm and exposure time (16 h) to be the most informative under which to observe hyperosmolality induced cellular responses of HCLE (results not shown). Thus, in the present study, a hyperosmotic medium of 500 mOsm and exposure time of 16 h were used throughout. Hyperosmolar media were prepared by the addition of NaCl to the medium. Medium osmolarity was measured using a Vapro 5520 vapour pressure osmometer (Wescor, Logan, Utah). Subconfluent cells were exposed to hyperosmolar media in the presence or absence of betaine (5 or 10 mM). Mitochondrial and proliferation activities for cell viability; TNF-α production; caspase activity and Annexin V/PI staining for apoptosis; and cellular shrinkage were monitored as detailed below.
It was observed that an osmolarity of 450 mOsM and 500 mOsM and exposure time of 16 hours was the most optimal for studying hyperosmolarity induced cellular responses of HCLE (results not shown). Therefore, a hyperosmolar medium of 450 mOsM and 500 mOsM and an exposure time of 16 hours were used throughout the study. The hyperosmolarity of the medium was achieved by addition of an appropriate amount of NaCl to it, and further measuring using Vapro 5520 vapor pressure osmometer (Wescor, Logan, Utah). Cells, having reached 70%-80% confluence were exposed to hyperosmolar media in the presence or absence of 10 mM L-Carnitine. Cellular shrinkage in relation to hyperosmotic stress, Annexin V/PI staining for apoptosis, Caspase activities and TNF-α production were analysed.
as §2

Consider `C[N+](C)(C)CC(O)CC(=O)[O-]` (stereo not shown) [carnitine, 3-hydroxy-4-(trimethylazaniumyl)butanoate], for which the “change in Caspase-8 activity (in words)” value in the series on caspase-8 (10 mM, hypertonic medium) was “minimum or no visible decline”. The “population of shrunken cells” value in the series with HCLE cells [1] is on record as approximately 15%. Besides, the “population of shrunken cells” value in the series with HCLE cells [1] (listed as L-Carnitine) stood at 18.01%. Also, in the series on HCLE cells [2] (toxicity of various concentrations), the “concentration optimal to carry out osmoprotective studies (cell viability analysis)” value was found to be 10000 µM. Also, the “reduction in cellular caspase-9 activities” value in the series on caspase-9 (10 mM, 500 mOsm) was 33%. The “change in Caspase-9 activity (in words)” value in the series on caspase-9 (10 mM, hypertonic medium) is “significant lowering”. Besides, the “decreasing trend for caspase-3/7 activities” value in the series on caspase-3/7 (10 mM, 500 mOsm) worked out at 20%. Further, in the series on caspase-3/7 (10 mM, hypertonic medium), the “change in Caspase-3/7 activity (in words)” value is reported as “significant lowering”. Besides, in the series with HCLE cells [3] (10 mM, 500 mOsm, vs hyperosmotically stressed HCLE), the “increase in the percentage of un-damaged (non-apoptotic/non-necrotic) cells” value is 63%. In the series with HCLE cells [3], the “percentage of healthy cells (Annexin V and PI negative)” value is given as “increased”; the “total percentage of apoptotic and necrotic (damaged) cells” value is approximately 19.0%.
As for `C[N+](C)(C)CC(=O)[O-]` [betaine, trimethylglycine], the “reduction of caspase-8 activity” value in the series with caspase-8 (5 mM) is 2- to 3 fold; in the series with caspase-8 (10 mM) it was 4- to 5.2 fold. Moreover, the “percentage of healthy (normal volume) cells” value with HCLE cells [1] (500 mOsm + 10 mM vs 500 mOsm) is “significantly increased”. For the same molecule, the “population of shrunken cells” value with HCLE cells [1] worked out at 11.01%. The “betaine concentration not toxic to the cells” value with HCLE cells [2] (titration 0-200 mM, 300 mOsm medium, 16 h, MTT) was “up to 40 mM”. Moreover, the “reduction of caspase-9 activity” value with caspase-9 (5 mM, 500 mOsm) is recorded as 2- to 3 fold; in the series on caspase-9 (10 mM, 500 mOsm), 4- to 5.2 fold. The “reduction of caspase-3/7 activity” value is reported as 2- to 3 fold in the series with caspase-3/7 (5 mM, 500 mOsm) and 4- to 5.2 fold with caspase-3/7 (10 mM, 500 mOsm). Moreover, the “percentage of healthy cells (Annexin V and PI negative)” value with HCLE cells [3] is “considerable increase”. Also, the “total percentage of apoptotic and necrotic (damaged) cells” value with HCLE cells [3] came to 15.70%.
